Assay results: patent US9618501B2, “Three-dimensional fibrous scaffolds for cell culture” (University of South Florida, priority 2012, dated 2017)
Where two headings read alike, the source gives them in different places.

Legend:
Assay type in all cases: cell-based
[1] = system: MCF-7 cells; test: Dose dependent cytotoxic response of MCF-7 cells, monolayer vs 3P scaffold (calcein AM/ethidium live cell count); details: for IC50: Homo sapiens, MCF7, 48 h, 48 hours of drug; for IC50 for 3P cultures relative to monolayer cultures: MCF7 cells, 3P scaffold vs monolayer
Protocol: MCF cells (7×10^3) were cultured on monolayer and 3P scaffold for 7 days then treated with different concentration of LY294002 and U0126 for 48 hours. Cells were stained with calcein/am and ethydium bromide then counted. Mean percentage of live cells (+/−SEM) were plotted as a function of drug concentration on and represents 4 replicates in 3 separate experiments. Box data points indicate monolayer and diamond data points indicate 3P scaffold.
To further explore the utility of the 3P scaffold as a tool to monitor chemotherapeutic prevention of EMT, MCF-7 breast cancer cells were treated with Doxorubicin and Ly294002 and U0126 inhibitors to prevent spheroid formation and examined for a differential dose-dependent response which was compared with response in monolayer 2D culture. […] The IC-50 of a drug is defined as the […] of a drug to inhibit biological or biochemical function.

[2] = system: biopsy induced tumoroids (BITs); test: Chemosensitivity of biopsy induced tumoroids (BITs) from FNAs of implanted LLC1 mouse tumors on 3P scaffolds; details: for IC50: Mus musculus, LLC1
Protocol: FIG. 17 illustrates biopsy tumoroids (day 2) treated with 1 μM each of LY294002 or U0126 for 3 days. The average size of biopsy tumoroids on 3P scaffolds (n=10 controls, 55 LY294002 and 50 U0126) is shown.
Culturing fine needle aspirates (FNAs) of implanted mouse tumors: LLC1 cells (5×10^5) were subcutaneously injected into the flanks of wild type C57BL/6 mice (National Cancer Institute). Tumor formation was monitored for 2 weeks after which tumor biopsies were collected by fine needle aspiration. Briefly, a 23-gauge needle was inserted into the tumor using a rotating motion and the tissue samples were flushed from the needle by attaching a syringe filled with tissue culture medium and expelling the contents into a sterile tube. This process was repeated twice. The three collected tumor samples were pooled and single cell suspensions were cultured on the scaffold.
Chemosensitivity of tumor biopsies grown on 3P scaffolds: To determine if the 3P scaffold can be utilized to culture tumor biopsies, single-cell suspensions of FNAs of implanted mouse tumors were cultured on 3P scaffolds. […] In addition to tumor cells, BITs were examined for the presence of stromal cells that are typical of in vivo tumor microenvironment (TME) (Mallela et al., (2013) Stem Cells 31: 1321-1329) by immunostaining with antibodies to respective cell surface markers.
To determine if the biopsy tumoroids cultured on 3P scaffolds can be utilized to assess drug sensitivity, FNA tumoroids were cultured in the presence or absence of the inhibitors, LY294002 and U0126.

[3] = system: LLC spheroids; test: Drug efficacy on LLC spheroids grown on 3P scaffold (spheroid size and number)
Protocol: Drug efficacy analysis using 3P scaffold: To assess the ability of the 3P scaffold to monitor therapeutic efficacy to treat tumors, LLC spheroids were treated with different concentrations of the PI3K pathway inhibitor Ly294002 (1.0 μM, 0.1 μM, and 0.01 μM) and spheroid viability was assessed over a time period of 24 hours to 96 hours.

[4] = system: MCF-7 cells; test: Inhibition of spheroid formation and EMT markers in MCF-7 cells on 3P scaffold
Protocol: (§1) To determine if treatment by these agents would deregulate EMT in fully formed spheroids, the same concentration of drugs were administered to LLC spheroids cultured at day 4.

[5] = system: LLC spheroids; test: EMT marker expression in fully formed LLC spheroids treated at day 4
Protocol: as §1

[6] = system: tumor cells; test: Doxorubicin sensitivity of tumor cells grown on 3PC scaffolds vs monolayer
Protocol: It was also determined that PLGA naked scaffolds are biocompatible and show increased tumorigenesis potential. From these observations, one can conclude that these 3D matrices can be used as a model to study cancer.

[7] = MCF-7 on 3P scaffold, read-out: IC-50
[8] = MCF-7 on monolayer, read-out: IC-50
[9] = 0.01 μM, 24 hours post treatment
[10] = 0.01 μM, 96 hours post treatment
[11] = 0.1 μM, 24 hours post treatment
[12] = 1.0 μM, 24 hours post treatment

In the case of `O=c1cc(N2CCOCC2)oc2c(-c3ccccc3)cccc12` [LY294002], the IC50 [1, 7] is reported as 1.15 µM, the IC50 [1, 8] is reported as 0.13 µM and the “IC50 for 3P cultures relative to monolayer cultures” value [1] is reported as 10 fold. The IC50 ([2]; biopsy tumoroids (BITs) on 3P scaffold, read-out: IC50) was over 1 µM, the “average decrease in spheroid size compared to untreated spheroids” value (from here on “average decrease … to untreated spheroids”) [3, 9] was 17+/−12.5% and the “decrease in spheroid numbers” value [3, 9] was 14.5+/−8.52%. For the same compound, the “decrease in spheroid numbers” value ([3]; 0.01 μM, 48 hours) was 40.3+/−2.44%, the “average decrease in spheroid size” value ([3]; 0.01 μM, 48 hours post treatment) was 28.9+/−9.3% and the “average decrease in spheroid size” value [3, 10] was 63+/−5.9%. The “decrease in spheroid numbers” value [3, 10] was 93.3+/−0.48%, the “average decrease … to untreated spheroids” value [3, 11] was 22.0+/−10.9% and the “decrease in spheroid numbers” value [3, 11] was 26.8+/−4.38%. For the same compound, the “decrease in spheroid numbers” value ([3]; 0.1 μM, 48 hours) was 52.6+/−2.93%, the “average decrease in spheroid size” value ([3]; 0.1 μM, 48 hours post treatment) was 32.6+/−5.97% and the “average decrease … to untreated spheroids” value [3, 12] was 37.3+/−8.4%. For the same compound, the “decrease in spheroid numbers” value [3, 12] was 37.4+/−3.8%, the “decrease in spheroid numbers” value ([3]; 1.0 μM, 48 hours) was 61.7+/−2.92% and the “average decrease in spheroid size” value ([3]; 1.0 μM, 48 hours post treatment) was 51.2+/−6.73%.
With `N#CC(=C(/N)Sc1ccccc1N)/C(C#N)=C(\N)Sc1ccccc1N` [U0126] the IC50 ([1]; MCF-7 on 3P scaffold) was 0.106 µM, the IC50 ([1]; MCF-7 on monolayer) was 0.0106 µM and the “IC50 for 3P cultures relative to monolayer cultures” value [1] was 100 fold. The “spheroid formation and proliferation on 3P scaffolds” value ([4]; MCF-7 treated after 24 hours of culture, observed on day 4) was “prevented spheroid formation and proliferation”, the “vimentin and E-cadherin expression” value ([4]; cells on 3P scaffold treated after 24 hours of culture) was “down regulating vimentin while maintaining E-cadherin expression” and the “vimentin and E-cadherin expression (EMT inhibition)” value [5] was “lack of vimentin expression and a concomitant expression of E-cadherin”. The “growth of BITs” value ([2]; FNA tumoroids on 3P scaffold cultured with inhibitor) was “decreases in tumoroid size” and the IC50 [2] was over 1 µM.
With `COc1cccc2c1C(=O)c1c(O)c3c(c(O)c1C2=O)C[C@@](O)(C(=O)CO)C[C@@H]3O[C@H]1C[C@H](N)[C@H](O)[C@H](C)O1` [doxorubicin] the IC50 [1, 7] was 12 µM, the IC50 [1, 8] was 0.6 µM and the “sensitivity of tumor cells compared to cells grown on monolayer” value [6] was “less sensitive”.
